In patent US8765779B2, “Tricyclic derivatives and their pharmaceutical use and compositions” (Cephalon, Inc., priority 2009, dated 2014):

Tests used:
[1] = test system: rats; conditions: rat model of tonic, persistent pain; cited from earlier work
[2] = target: T1, human 5-HT6 receptor (Homo sapiens, UniProt P50406); assay: Human 5-HT6 Receptor Binding Assay ([3H]LSD displacement, scintillation beads); conditions: membranes of CHO-K1 cells with recombinant human 5-HT6, 4 nM [3H]LSD; Table 1, class symbols; read-out: h5-HT6 (Ki)
T1 construct: host or cells: CHO-K1 cells, stably transfected; membranes prepared in house
T1 sequence (P50406 whole entry): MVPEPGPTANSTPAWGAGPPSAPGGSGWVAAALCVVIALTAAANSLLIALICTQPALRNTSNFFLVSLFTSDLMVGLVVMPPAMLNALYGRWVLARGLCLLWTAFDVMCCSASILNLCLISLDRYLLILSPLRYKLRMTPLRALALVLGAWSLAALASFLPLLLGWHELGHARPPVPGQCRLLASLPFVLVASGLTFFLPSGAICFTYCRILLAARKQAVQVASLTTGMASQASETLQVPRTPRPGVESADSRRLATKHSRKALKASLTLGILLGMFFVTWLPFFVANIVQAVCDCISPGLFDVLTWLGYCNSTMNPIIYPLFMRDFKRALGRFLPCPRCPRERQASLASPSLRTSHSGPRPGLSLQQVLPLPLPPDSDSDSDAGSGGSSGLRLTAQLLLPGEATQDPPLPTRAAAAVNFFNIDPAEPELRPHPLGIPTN

[3] = test system: rats; conditions: compared to an untreated control group; cited from earlier work

melting point | Ki [2] | Compound | antinociceptive effect [1] | non-REM (NREM) sleep [3]
 |  | COc1ccc(NS(=O)(=O)c2sc3ccc(Cl)cc3c2C)cc1N1CCNCC1 [SB-271046] | short-lived, antinociceptive effect | 
224 to 225 °C | < 500 nM | Cn1ccc2cccc(S(=O)(=O)c3ccc4c5c(oc4c3)CNCC5)c21 [Example 84] |  | 
128 to 130 °C | < 500 nM | Cc1cncc(Oc2cccc(S(=O)(=O)c3ccc4c(c3)OC3CNCCC43)c2)n1 (stereo not shown) [Example 63] |  | 
> 250 °C (dec.) | < 500 nM | CC1(CN)NCCc2c1oc1cc(S(=O)(=O)c3cccc(F)c3)ccc21 (stereo not shown) [Example 493, 1-{7-[(3-Fluorophenyl)sulfonyl]-1-methyl-1,2,3,4-tetrahydro[1]benzofuro[2,3-c]pyridin-1-yl}methanamine] |  | 
> 300 °C | > 1000 nM | O=S(=O)(c1cccc(-n2cnnn2)c1)c1ccc2c(c1)OC1CNCCC21 (stereo not shown) [Example 75] |  | 
216 to 217 °C | < 500 nM | COc1cc2c(cc1S(=O)(=O)c1cccc(Cl)c1Cl)C1CCNCC1O2 (stereo not shown) [Example 88] |  | 
> 300 °C | < 500 nM | CC1CNCc2oc3cc(S(=O)(=O)c4cccc(F)c4)ccc3c21 (stereo not shown) [Example 102] |  | 
188 to 189 °C | < 500 nM | Cc1c(Cl)cccc1S(=O)(=O)c1ccc2c(c1)OC1CNCCC21 (stereo not shown) [Example 66] |  | 
228 to 229 °C | < 500 nM | CC(=O)Nc1cccc(S(=O)(=O)c2ccc3c(c2)OC2CNCCC32)c1 (stereo not shown) [Example 73] |  | 
246 to 247 °C | < 500 nM | COc1cc(OC(C)C)cc(S(=O)(=O)c2ccc3c4c(oc3c2)CNCC4(C)C)c1 [Example 85] |  | 
249 to 252 °C | < 500 nM | CC1(C(F)F)NCCc2c1oc1cc(S(=O)(=O)c3cccc(F)c3F)ccc21 (single isomer, unassigned; enantiomer 2) [Example 472, 1-(Difluoromethyl)-7-[(2,3-difluorophenyl)sulfonyl]-1-methyl-1,2,3,4-tetrahydro[1]benzofuro[2,3-c]pyridine, enantiomer 2] |  | 
140 to 155 °C (dec.) | < 500 nM | CC(=O)NCC1(C)NCCc2c1oc1cc(S(=O)(=O)c3cccc(F)c3)ccc21 (stereo not shown) [Example 492, N-({7-[(3-fluorophenyl)sulfonyl]-1-methyl-1,2,3,4-tetrahydro[1]benzofuro[2,3-c]pyridin-1-yl}methyl)acetamide] |  | 
202 to 203 °C | < 500 nM | COc1cc(OCc2ccccc2)cc(S(=O)(=O)c2ccc3c(c2)OC2CNCCC32)c1 (stereo not shown) [Example 76] |  | 
195 to 196 °C | < 500 nM | O=S(=O)(c1ccc2c(c1)OC1CNCCC21)c1nc2ccccc2s1 (stereo not shown) [Example 65] |  | 
 |  | CN1CCN(c2cccc3c(S(=O)(=O)c4ccccc4)c[nH]c23)CC1 [RO 4368554] |  | increase in non-REM (non-rapid eye movement or NREM) sleep
291 to 293 °C | < 500 nM | CC1(C)CNCc2oc3cc(S(=O)(=O)c4cccc(F)c4)ccc3c21 [Example 86] |  | 

Compound | melting point | Ki [2] | antinociceptive effect [1] | non-REM (NREM) sleep [3]
CCNC(=O)Oc1cccc(S(=O)(=O)c2ccc3c(c2)OC2CNCCC32)c1 (stereo not shown) [Example 628, 3-[1,2,3,4,4a,9a-Hexahydro[1]benzofuro[2,3-c]pyridin-7-ylsulfonyl]phenyl ethylcarbamate] | 217 to 219 °C | < 500 nM |  | 
CC12CCNCC1Oc1ccc(S(=O)(=O)c3cc(F)cc(F)c3)cc12 (stereo not shown) [Example 94] | 196 to 198 °C | < 500 nM |  | 
